From PubChem BioAssay AID248 (DTP/NCI, 2004) come the findings set out here.

SMILES strings stand for the structures. Several values for one entry are separate records, joined by “and”; a condition that tells them apart may be missing. Identical values can stand only once. Inconclusive results and toxic doses are left out.

In the experiment the test system is L1210 leukemia ip in BDF1 mice, survival T/C. Briefly: NCI In Vivo Anticancer Drug Screen. Data for tumor model L1210 Leukemia (intraperitoneal) in B6D2F1 (BDF1) mice. The following applies: endpoint: mean survival time, higher = longer survival. Summed up: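 Value reflects the ratio of survival in compound-treated mice to survival in vehicle-treated controls, with both groups carrying the same transplanted tumor.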

Setting [1] is: dose: 12.5 mg/kg/injection, schedule: Q04DX003 (ip), vehicle: Klucel (hydroxypropylcellulose) (HPC).
[2] abbreviates: dose: 25.0 mg/kg/injection, schedule: Q01DX009 (ip), vehicle: Klucel (hydroxypropylcellulose) (HPC).
[3] abbreviates: dose: 25.0 mg/kg/injection, schedule: Q04DX003 (ip), vehicle: Klucel (hydroxypropylcellulose) (HPC).
Where [4] appears, read: dose: 50.0 mg/kg/injection, schedule: Q04DX003 (ip), vehicle: Klucel (hydroxypropylcellulose) (HPC).
The mark [5] stands for this setting: dose: 100.0 mg/kg/injection, schedule: Q01DX009 (ip), vehicle: saline with Tween-80.
Setting [6] is: dose: 200.0 mg/kg/injection, schedule: Q01DX009 (ip), vehicle: saline with Tween-80.
Where [7] appears, read: dose: 100.0 mg/kg/injection, schedule: Q01DX001 (ip), vehicle: carboxymethylcellulose (CMC).
Setting [8] is: dose: 100.0 mg/kg/injection, schedule: Q04DX003 (ip), vehicle: saline with Tween-80.
[9] abbreviates: dose: 200.0 mg/kg/injection, schedule: Q04DX003 (ip), vehicle: saline with Tween-80.
The mark [10] stands for this setting: dose: 400.0 mg/kg/injection, schedule: Q04DX003 (ip), vehicle: saline with Tween-80.
Where [11] appears, read: dose: 100.0 mg/kg/injection, schedule: Q01DX001 (ip), vehicle: saline.

On to `CC(=O)NC(C)(C)CC(C)(C)C`, for which the T/C (dose: 12.5 mg/kg/injection, schedule: Q01DX009 (ip), vehicle: Klucel (hydroxypropylcellulose) (HPC)) was 99 % of control; the T/C under setting [1] was 98 % of control; the T/C (dose: 25.0 mg/kg/injection, schedule: Q01DX001 (ip), vehicle: saline with Tween-80) is 98 % of control; the T/C under setting [2] is 101 % of control; the T/C under setting [3] is 96 % of control; the T/C (dose: 50.0 mg/kg/injection, schedule: Q01DX001 (ip), vehicle: saline with Tween-80) is 103 % of control. The T/C runs as follows: under setting [4], 93 % of control; (dose: 100.0 mg/kg/injection, schedule: Q01DX001 (ip), vehicle: saline with Tween-80) 105 % of control and 119 % of control.

On to `Oc1ccccc1/C=N/Nc1ccc2ccccc2n1`, for which the T/C runs as follows: (dose: 75.0 mg/kg/injection, schedule: Q01DX001 (ip), vehicle: saline with Tween-80) 93 % of control; (dose: 150.0 mg/kg/injection, schedule: Q01DX001 (ip), vehicle: saline with Tween-80) 90 % of control; (dose: 300.0 mg/kg/injection, schedule: Q01DX001 (ip), vehicle: saline with Tween-80) 93 % of control.

Turning to `CC1OC2CCCCC2O1` (stereo not drawn), the T/C is, setting by setting: (dose: 50.0 mg/kg/injection, schedule: Q01DX009 (ip), vehicle: saline with Tween-80) 97 % of control; under setting [5], 97 % of control; under setting [6], 94 % of control.

Take `C#CC1(NC(=S)Nc2cccc(OC)c2)CCCCC1`: the T/C (dose: 100.0 mg/kg/injection, schedule: Q04DX002 (ip), vehicle: Klucel (hydroxypropylcellulose) (HPC)) was 94 % of control; the T/C (dose: 200.0 mg/kg/injection, schedule: Q04DX002 (ip), vehicle: Klucel (hydroxypropylcellulose) (HPC)) was 109 % of control; the T/C (dose: 400.0 mg/kg/injection, schedule: Q04DX002 (ip), vehicle: Klucel (hydroxypropylcellulose) (HPC)) is 96 % of control.

Turning to `O=C(C1C2CCC(CC2)C1C(=O)N1CCOCC1)N1CCOCC1` (stereo not drawn), the T/C by setting is: (dose: 100.0 mg/kg/injection, schedule: Q04DX003 (ip), vehicle: saline) 100 % of control; (dose: 200.0 mg/kg/injection, schedule: Q04DX003 (ip), vehicle: saline) 100 % of control; (dose: 400.0 mg/kg/injection, schedule: Q04DX003 (ip), vehicle: saline) 103 % of control.

As to `CC(C)(C)c1cc(CN2CCCCC2)cc(C(C)(C)C)c1O`, the T/C by setting is: under setting [1], 101 % of control; under setting [3], 114 % of control; under setting [4], 97 % of control.

Take `OC(CNc1ccc(Cl)cc1)CN1CCCC1` (stereo not drawn): for the setting “dose: 75.0 mg/kg/injection, schedule: Q04DX003 (ip), vehicle: saline”, the T/C is 101 % of control.

As for `O=C1C=C(O)c2[nH]c(=O)ccc2C1=O`, the T/C was 97 % of control (dose: 5.0 mg/kg/injection, schedule: Q01DX001 (ip), vehicle: saline); 101 % of control (dose: 10.0 mg/kg/injection, schedule: Q01DX001 (ip), vehicle: saline); 97 % of control (dose: 20.0 mg/kg/injection, schedule: Q01DX001 (ip), vehicle: saline); 97 % of control (dose: 40.0 mg/kg/injection, schedule: Q01DX001 (ip), vehicle: saline).

Consider `CC(C)N(CCCCO)C(C)C`, for which the T/C under setting [7] is 91 % of control.

As to `Cn1nnc2nnc(-c3ccccc3)n21`, the T/C is, setting by setting: under setting [5], 100 % of control; under setting [8], 95 % of control; under setting [6], 94 % of control; under setting [9], 106 % of control; (dose: 400.0 mg/kg/injection, schedule: Q01DX009 (ip), vehicle: saline with Tween-80) 108 % of control; under setting [10], 98 % of control.

As to `NC1=NC(=O)NC1(c1ccccc1)c1ccccc1`, the T/C is 94 % of control (dose: 50.0 mg/kg/injection, schedule: Q01DX001 (ip), vehicle: carboxymethylcellulose (CMC)); 100 % of control under setting [7]; 89 % of control (dose: 200.0 mg/kg/injection, schedule: Q01DX001 (ip), vehicle: carboxymethylcellulose (CMC)); 116 % of control (dose: 400.0 mg/kg/injection, schedule: Q01DX001 (ip), vehicle: carboxymethylcellulose (CMC)).

In the case of `COC(=O)/C(=C\c1ccncc1)c1cccc2ccccc12`, the T/C runs as follows: under setting [8], 104 % of control; under setting [9], 100 % of control; under setting [10], 94 % of control.

As to `Cc1[nH]c(=O)[nH]c(=O)c1/C=C/C(=O)NC(CO)CC(C)C` (stereo not drawn), the T/C reads like this: (dose: 12.5 mg/kg/injection, schedule: Q01DX009 (ip), vehicle: saline) 98 % of control; (dose: 25.0 mg/kg/injection, schedule: Q01DX009 (ip), vehicle: saline) 102 % of control and 114 % of control; (dose: 50.0 mg/kg/injection, schedule: Q01DX009 (ip), vehicle: saline) 98 % of control; (dose: 100.0 mg/kg/injection, schedule: Q01DX009 (ip), vehicle: saline) 107 % of control and 108 % of control; (dose: 200.0 mg/kg/injection, schedule: Q01DX009 (ip), vehicle: saline) 101 % of control; (dose: 300.0 mg/kg/injection, schedule: Q01DX009 (ip), vehicle: saline) 114 % of control.

Consider `Nc1nc(=S)c2[nH]c(N=Nc3ccc(S(=O)(=O)Nc4ccccn4)cc3)nc2[nH]1`, for which the T/C (dose: 6.25 mg/kg/injection, schedule: Q01DX009 (ip), vehicle: Klucel (hydroxypropylcellulose) (HPC)) is 170 % of control; the T/C under setting [2] was 112 % of control; the T/C (dose: 50.0 mg/kg/injection, schedule: Q01DX009 (ip), vehicle: Klucel (hydroxypropylcellulose) (HPC)) is 100 % of control and 117 % of control and 124 % of control; the T/C under setting [4] was 106 % of control; the T/C under setting [11] is 98 % of control; the T/C (dose: 100.0 mg/kg/injection, schedule: Q01DX009 (ip), vehicle: Klucel (hydroxypropylcellulose) (HPC)) is 101 % of control. In addition, the T/C reads like this: (dose: 100.0 mg/kg/injection, schedule: Q04DX003 (ip), vehicle: Klucel (hydroxypropylcellulose) (HPC)) 117 % of control; (dose: 200.0 mg/kg/injection, schedule: Q01DX001 (ip), vehicle: saline) 104 % of control; (dose: 200.0 mg/kg/injection, schedule: Q01DX009 (ip), vehicle: Klucel (hydroxypropylcellulose) (HPC)) 100 % of control; (dose: 400.0 mg/kg/injection, schedule: Q01DX001 (ip), vehicle: saline) 104 % of control.

For the compound `C=C(CCCCCC/C=C\CCCCCCCC)C(=O)O`, the T/C is, setting by setting: (dose: 100.0 mg/kg/injection, schedule: Q04DX002 (sc), vehicle: olive oil, sesame oil, peanut oil) 103 % of control; (dose: 200.0 mg/kg/injection, schedule: Q04DX002 (sc), vehicle: olive oil, sesame oil, peanut oil) 103 % of control; (dose: 400.0 mg/kg/injection, schedule: Q04DX002 (sc), vehicle: olive oil, sesame oil, peanut oil) 103 % of control.

`O=CC(CO)CC(C=O)n1cnc2c(=O)[nH]cnc21` (stereo not drawn): the T/C under setting [11] was 114 % of control.

Take `CC1(C)C(=NN)C(C)(C)C1O` (stereo not drawn): the T/C was 101 % of control (dose: 75.0 mg/kg/injection, schedule: Q01DX001 (ip), vehicle: saline); 104 % of control (dose: 150.0 mg/kg/injection, schedule: Q01DX001 (ip), vehicle: saline); 96 % of control (dose: 300.0 mg/kg/injection, schedule: Q01DX001 (ip), vehicle: saline).

For the compound `C[N+](C)(C)CCCCCCCC[N+](C)(C)CCCCCCCCCC[N+](C)(C)CCCCCCCC[N+](C)(C)C`, the T/C reads like this: (dose: 23.0 micrograms/kg/injection, schedule: Q04DX003 (ip), vehicle: saline) 97 % of control; (dose: 45.0 micrograms/kg/injection, schedule: Q04DX003 (ip), vehicle: saline) 105 % of control; (dose: 90.0 micrograms/kg/injection, schedule: Q04DX003 (ip), vehicle: saline) 103 % of control.
